# Tested on: C57BL/6J male mice
# Assay: AMLN diet NASH mouse model, drug provided in the AMLN diet
# Type: in vivo
# Details: 60 mg/kg mifepristone in AMLN diet, 8 weeks, vs diet-alone control (FIG. 8A)
# Procedure: Two studies were conducted in C57BL/6J male mice (n=12 per group) maintained on a diet high in fat (40%), cholesterol (2%) and fructose (20%; referred to as the AMLN diet: see, e.g., Tolbol et al., World Journal of Gastroenterology, 24(2):179-194 (2018)) for 42 weeks before dosing with miricorilant was initiated. In the first study, all animals ate the AMLN diet, and received either placebo, 30 mg/kg miricorilant, or 60 mg/kg mifepristone once per day orally. […] All animals received the AMLN diet for 42 weeks prior to receiving their first dose of study drug or placebo. 4 weeks prior to receiving that first dose, a liver biopsy and histological examination of biopsy tissue was performed for each animal; 3 weeks prior to receiving that first dose, animals were randomized into three groups: control, miricorilant, or mifepristone. Only mice with fibrosis stage >=1 and steatosis score >=2 were allowed in the study and the groups were stratified according to liver col1a1 so that each study group had similar overall distributions of liver col1a1 among the mice. All animals continued on the study diet for the 3 weeks following randomization, at which time study drug or placebo administration began. All animals received their assigned drugs for 8 weeks (the 8 week in vivo study period). At 56 days (week 8) after initiation of drug administration, plasma ALT, AST, triglycerides, total cholesterol, and miricorilant levels were measured, and animals were sacrificed, liver necropsies were performed, liver histological ((NAFLD Activity Score, Fibrosis Stage, steatosis (scored using hematoxylin and eosin staining (HE)), col1a (scored using immunohistochemistry (IHC)) and Galectin-3 (IHC)) and liver biochemical measurements (including liver triglycerides and total cholesterol) were made, and liver and plasma samples were obtained for genetic ((e.g., RNA sequencing) and other analyses.
# Thus, in these studies, the mice were subjected to a liver biopsy approximately 4 weeks before initiation of dosing with miricorilant and only mice with confirmed fibrosis (fibrosis stage ≥1) and steatosis (score ≥2) were entered into the study. At the end of the dosing period, blood samples were collected for determination of plasma ALT, AST, triglycerides, total cholesterol, and miricorilant. Liver samples were collected for analysis of triglycerides, total cholesterol, hydroxyproline, and histopathology. Body weight and food consumption were monitored throughout the study.
# Type I collagen IHC staining Type I collagen (Southern Biotech, Cat. 1310-01) IHC were performed using standard procedures. Briefly, after antigen retrieval and blocking of endogenous peroxidase activity, slides were incubated with primary antibody. The primary antibody was detected using a polymeric HRP-linker antibody conjugate. Next, the primary antibody was visualized with DAB as chromogen. Finally, sections were counterstained in hematoxylin and cover-slipped.
# Liver Galectin-3 content Galectin-3 (Biolegend, Cat. #125402) IHC was performed using standard procedures. Briefly, after antigen retrieval and blocking of endogenous peroxidase activity, slides were incubated with primary antibody. The primary antibody was detected using a linker secondary antibody followed by amplification using a polymeric HRP-linker antibody conjugate. Next, the primary antibody was visualized with DAB as chromogen. Finally, sections were counterstained in hematoxylin and cover-slipped.
# Total liver col1a1 was evaluated from liver samples stained with anti-type I collagen (col1a1) (Southern Biotech, cat. 1310-01) at the end of the treatment period (typically using low power (20×) magnification). Galectin-3 content was evaluated from images of liver samples stained with anti-Galectin-3 (BioLegend, Cat. 125402) at the end of the treatment period (typically using low power (20×) magnification). Terminal relative (left) and total (right) liver type I Collagen (Col1a1) quantification was determined by morphometry. […]
structure (smiles),measurement,value
"CC#C[C@]1(O)CC[C@H]2[C@@H]3CCC4=CC(=O)CCC4=C3[C@@H](c3ccc(N(C)C)cc3)C[C@@]21C [mifepristone, reference compound]",Liver weight at termination of the study,significantly increased
